Earlier results, collected in patent US20010001790A1, “TOPICAL FORMULATIONS COMPRISING SKIN PENETRATION AGENTS AND THE USE THEREOF” (priority 1999, published 2001).

Settings: propylene glycol vehicle; upon addition of cetyl alcohol at 3% by weight

## CC1(C)O[C@@H]2C[C@H]3[C@@H]4CCC5=CC(=O)C=C[C@]5(C)[C@@]4(F)[C@@H](O)C[C@]3(C)[C@]2(C(=O)CO)O1 [triamcinolone acetonide]
  reduction of skin penetration of the pharmaceutically active agent: 39%
